Values quoted from earlier work, collected in patent US20120232274A1, “PROCESS FOR PREPARATION OF CLOPIODOGREL BISULFATE FORM-1” (PHARMAZELL GMBH, priority 2009, published 2012).

Legend:
[1] = Form 2 compared with Form 1 of Clopidogrel bisulfate
[2] = Form 2 compared with Form 1 of Clopidogrel bisulfate; remark: listed apart in the source

- solubility [1]: lower solubility than Form 1
- thermodynamic stability [2]: greater thermodynamic stability
SMILES: COC(=O)[C@H](c1ccccc1Cl)N1CCc2sccc2C1 [Form 2, Clopidogrel bisulfate]
